According to US20100303933A1, “IMMUNOPOTENTIATING COMPOSITION FROM LABISIA PUMILA EXTRACT” (HOLISTA BIOTECH SDN. BHD., priority 2007, published 2010):
Marks after values point to notes of the source that are not given here.

Assays:
[1] = system: peritoneal murine macrophages; assay: Phagocytic response in vitro: heat killed Candida albicans ingested by peritoneal macrophages; format: cell-based; conditions: 10 μg/ml (Levamisole)
Procedure: Peritoneal macrophage cells (2×10^6) were allowed to adhere to glass cover slip for 90 minutes at 37° C. in 5% CO2 incubator (95% humidity). Simultaneously heat killed Candida albicans cells (100° C., 60 minutes) were opsonized for 90 minutes with 20% autologous serum to promote phagocytosis. The samples were washed with PBS and immediately evaluated microscopically. The percentage and average number of Candida albicans cells (heat killed) ingested by peritoneal murine macrophages was calculated.

skin allograft = assay: Skin allograft rejection (CMI response); format: in vivo, mice; conditions: 2.5 mg/kg p.o. (Levamisole)
Procedure: Skin allograft rejection: Mice were employed for the skin transplantation that were administered LPPM/A003 daily for 7 days and the graft rejection time (GRT) was recorded by daily observation of the epithelial survival.

[2] = system: reticuloendothelial system; assay: Phagocytic response in vivo: clearance of carbon particles from circulation; parameters: species or system mice; conditions: dose 2.5 mg/ml p.o. (Levamisole)
Procedure: The phagocytic function of the reticuloendothelial system was assayed in groups of six mice each by injecting i.v. 160 mg/kg of 1.6% suspension of gelatin stabilized carbon particles of […] size (Atal et al., 1986). Blood samples were collected before and at intervals varying between 2 to 90 min after carbon injection. An aliquot (10 μL) of blood samples were lysed with 2 mL of 0.1% acetic acid and the transparency determined spectrophotometrically at 675 nm (Uvikon 810, spectrophotometer, Kontron Ltd, Switzerland) as per the method of Hudson and Hay (1980).

c1ccc([C@H]2CN3CCSC3=N2)cc1 [Levamisole]
% Phagocytosis In vitro study Mean ± S.E. [1]: 43.11 ± 2.92 %
Rejection Time Days Mean ± S.E. (skin allograft): 8.50 ± 0.22 days
Graft Rejection (Percent) (skin allograft; ↑ hastened): 34.61^b ↑ Percent
% Phagocytosis Ex -In vivo study Mean ± S.E. [2]: 1.78 ± 0.11 %
